Test results from US4931391A, “Method for preservation of nitrile hydration activity” (Mitsubishi Rayon Kabushiki Kaisha, priority 1986, dated 1990).
Like-named read-outs stand apart in the source and are kept apart here. Each block holds one compound with its values, some of them ahead of it.

Columns and labels:
[1] = biological target: T1, (Rhodococcus erythropolis, UniProt P13448+P13449); assay: Preservation of nitrile hydration activity of cell extract prepared as in Comparison Example 1, stabilizer added to extract; format: biochemical, Corynebacterium strain N-774(FERM P-4446)
T1 sequence (P13448 2-207 limits assumed): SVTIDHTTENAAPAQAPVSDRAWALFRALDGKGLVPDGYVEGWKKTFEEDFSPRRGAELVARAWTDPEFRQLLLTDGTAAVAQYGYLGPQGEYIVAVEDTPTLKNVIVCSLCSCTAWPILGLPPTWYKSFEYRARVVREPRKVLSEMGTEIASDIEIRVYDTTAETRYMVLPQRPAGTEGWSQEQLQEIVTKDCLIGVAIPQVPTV
T1 sequence (P13449 1-212): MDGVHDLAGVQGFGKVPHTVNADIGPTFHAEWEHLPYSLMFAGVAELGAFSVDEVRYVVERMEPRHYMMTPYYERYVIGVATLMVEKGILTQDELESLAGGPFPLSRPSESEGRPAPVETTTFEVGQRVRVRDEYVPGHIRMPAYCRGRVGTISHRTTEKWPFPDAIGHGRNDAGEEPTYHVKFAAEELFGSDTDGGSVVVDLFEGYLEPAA

immobilized nitrilase = immobilized nitrilase (Rhodococcus erythropolis, UniProt P13448+P13449); assay: Preservation of nitrile hydration activity of immobilized enzyme (polyacrylamide gel); format: biochemical, Corynebacterium strain N-774(FERM P-4446); settings: 0° C., 20 minutes
Procedure: 40 ml of a cell extract prepared as in Example 1, 4.5 g of acrylamide, 0.5 g of N,N'-methylenebisacrylamide, and 40 ml of M/20 phosphate buffer (containing 10 g/l of ammonium isobutyrate, pH 6.0) were mixed to form a homogeneous suspension. To this suspension were added 5 ml of a 5% aqueous solution of dimethylaminopropionitrile and 10 ml of a 1.0% aqueous solution of potassium persulfate, and the mixture was maintained at 10° C. for 30 minutes to cause polymerization. A mass of cell-containing gel obtained was crushed into small particles, which were thoroughly washed with M/20 phosphate buffer containing 5 g/l of ammonium isobutyrate, pH 7.0, whereby approximately 90 g of an immobilized enzyme was obtained.
The washed, immobilized enzyme thus obtained was placed in the same buffer containing 5 g/l of isobutyric acid and left standing at 20° C. for 3 days.
The nitrile hydration activity levels of the gel samples were measured as follows before and after the respective immobilized enzymes were left standing.
1 g of immobilized gel was mixed with 5 g of acrylonitrile and 97 ml of M/20 phosphate buffer (pH 7.7), and the mixture was subjected to reaction at 0° C. for 20 minutes with stirring. The quantities of acrylamide in the respective reaction solutions were determined by gas chromatography.

[2] = 48 h, pH 6.5; read-out: % Residual Activity (Amide Added)
[3] = 48 h, pH 6, read-out: % Residual Activity
[4] = 48 h; 10 mg amide in 2.5 ml buffer + 2.5 ml extract; pH 6.5; 20° C. for 2 days; read-out: % Residual Activity (Amide Added)
[5] = 48 h, pH 6.5; read-out: % Residual Activity (Nitrile Added)
[6] = 48 h; 10 mg organic acid in 2.5 ml buffer + 2.5 ml extract; pH 6.5; 20° C. for 2 days; read-out: % Residual Activity (Organic Acid Added)
[7] = 48 h, pH 7, read-out: % Residual Activity
[8] = 48 h, pH 6.5; read-out: % Residual Activity (Organic Acid Added)
[9] = 48 h, pH 6.5, read-out: % Residual Activity (Organic Acid Added)
[10] = pH 6, read-out: % Residual Activity
[11] = stabilizer concentration 1.0 g/l; pH 6.0; […]; 20° C. for 2 days; read-out: % Residual Activity
[12] = stabilizer concentration 20 g/l; pH 6.0; […]; 20° C. for 2 days; read-out: % Residual Activity
[13] = stabilizer concentration 0.01 g/l; pH 6.0; extract 0.7×10^3 U/ml; 20° C. for 2 days; read-out: % Residual Activity
[14] = stabilizer concentration 5.0 g/l; pH 6.0; extract 0.7×10^3 U/ml; 20° C. for 2 days; read-out: % Residual Activity
[15] = stabilizer concentration 50 g/l; pH 6.0; extract 0.7×10^3 U/ml; 20° C. for 2 days; read-out: % Residual Activity
[16] = 48 h; 10 mg nitrile in 2.5 ml buffer + 2.5 ml extract (0.8×10^3 U/ml); pH 6.5; 20° C. for 2 days; read-out: % Residual Activity (Nitrile Added)

SMILES: C=CC(N)=O [Acrylamide]
activity at 2000 µg/mL [1, 2]: 63%

SMILES: CC(C)C(N)=O [Isobutyramide]
activity at 25 mg [1, 3]: 80%
activity at 25 mg ([1]; 48 h, pH 7; read-out: % Residual Activity): 74%
activity at 2000 µg/mL [1, 4]: 85%
activity at 25 mg ([1]; 48 h; pH 5.0; 25 mg stabilizer in 2.5 ml buffer + 2.5 ml extract (1×10^3 U/ml); 20° C. for 2 days; read-out: % Residual Activity): 4%
activity at 25 mg ([1]; 48 h; pH 8.0; 25 mg stabilizer in 2.5 ml buffer + 2.5 ml extract (1×10^3 U/ml); 20° C. for 2 days; read-out: % Residual Activity): 48%

SMILES: N#CCCCCC#N [Adiponitrile]
activity at 2000 µg/mL [1, 5]: 68%

activity at 2000 µg/mL [1, 6]: 60%
SMILES: O=C(O)C(O)CO (racemic) [DL-Glyceric acid]

activity at 2000 µg/mL [1, 4]: 49%
SMILES: NCC(N)=O [Glycine amide]

activity at 2000 µg/mL [1, 6]: 43%
SMILES: O=C(O)CC(O)C(=O)O (stereo not shown) [Malic acid]

SMILES: CC(C)C#N [Isobutyronitrile]
activity at 25 mg ([1]; 48 h, pH 5; read-out: % Residual Activity): 3%
activity at 25 mg [1, 3]: 82%
activity at 2000 µg/mL [1, 5]: 88%
activity at 25 mg [1, 7]: 77%
activity at 25 mg ([1]; 48 h, pH 8; read-out: % Residual Activity): 45%

SMILES: O=C(O)c1ccccc1 [Benzoic acid]
activity at 2000 µg/mL [1, 8]: 48%

SMILES: N#CCCl [Chloroacetonitrile]
activity at 2000 µg/mL [1, 5]: 58%

SMILES: CCCCCC#N [n-Capronitrile]
activity at 2000 µg/mL [1, 5]: 71%

SMILES: NCCC(=O)O [β-Aminopropionic acid]
activity at 2000 µg/mL [1, 9]: 45%

SMILES: CC(O)C#N (stereo not shown) [Lactonitrile]
activity at 2000 µg/mL [1, 5]: 49%

activity at 2000 µg/mL [1, 4]: 52%
SMILES: NCCC(N)=O [β-Aminopropionamide]

SMILES: CCC#N [Propionitrile]
activity at 2000 µg/mL [1, 5]: 83%

activity at 2000 µg/mL [1, 6]: 68%
SMILES: O=C(O)CC(=O)C(=O)O [Oxalacetic acid]

SMILES: NC(=O)CCl [Chloroacetamide]
activity at 2000 µg/mL ([1]; 48 h, pH 6.5, read-out: % Residual Activity (Amide Added)): 60%

SMILES: N#CCCN [β-Aminopropionitrile]
activity at 2000 µg/mL [1, 5]: 55%

activity at 2000 µg/mL [1, 4]: 57%
SMILES: CC(N)=O [Acetamide]

SMILES: CCCC#N [n-Butyronitrile]
activity at 2000 µg/mL [1, 5]: 93%
remaining activity at 100 µg/mL [1, 10]: 82%
remaining activity at 10 µg/mL ([1]; stabilizer concentration 0.01 g/l; pH 6.0; […]; 20° C. for 2 days; read-out: % Residual Activity): 60%
remaining activity at 1000 µg/mL [1, 11]: 88%
remaining activity at 5000 µg/mL ([1]; stabilizer concentration 5.0 g/l; pH 6.0; […]; 20° C. for 2 days; read-out: % Residual Activity): 86%
remaining activity at 20000 µg/mL [1, 12]: 70%

SMILES: CC(=O)O [Acetic acid]
activity at 2000 µg/mL [1, 9]: 55%

SMILES: N#CCCO [β-Hydroxypropionitrile]
activity at 2000 µg/mL [1, 5]: 78%

SMILES: N#CCCC#N [Succinonitrile]
activity at 2000 µg/mL [1, 5]: 70%

activity at 2000 µg/mL [1, 4]: 78%
SMILES: CCCCC(N)=O [n-Valeramide]

SMILES: CCCCC#N [n-Valeronitrile]
activity at 2000 µg/mL [1, 5]: 82%

activity at 2000 µg/mL [1, 4]: 68%
SMILES: NC(=O)CCCl [β-Chloropropionamide]

SMILES: N#CCC#N [Malononitrile]
activity at 2000 µg/mL ([1]; 48 h; pH 6.5; 20° C. for 2 days; read-out: % Residual Activity (Nitrile Added)): 55%

SMILES: N#CCC(N)=O [Cyanoacetamide]
activity at 2000 µg/mL [1, 5]: 53%

SMILES: C=C(C)C(=O)O [Methacrylic acid]
activity at 2000 µg/mL [1, 8]: 59%

SMILES: CC(C)C(=O)O [Isobutyric acid]
Quant. of AA produced (%) after enzyme was left standing (immobilized nitrilase; after standing at 20° C. for 3 days in buffer containing 5 g/l of isobutyric acid, 1 g gel): 0.60%
Quant. of AA produced (%) before enzyme was left standing (immobilized nitrilase; immobilized gel, 1 g with 5 g acrylonitrile, immobilized and washed with stabilizer): 0.71%
activity at 25 mg ([1]; 48 h, pH 5, read-out: % Residual Activity): 2%
activity at 25 mg ([1]; 48 h, pH 5.5, read-out: % Residual Activity): 82%
activity at 25 mg [1, 3]: 83%
activity at 2000 µg/mL [1, 9]: 83%
activity at 25 mg [1, 7]: 77%
activity at 25 mg ([1]; 48 h, pH 8, read-out: % Residual Activity): 42%

SMILES: O=C(O)CCC(=O)O [Succinic acid]
activity at 2000 µg/mL [1, 9]: 59%

activity at 2000 µg/mL [1, 4]: 63%
SMILES: NC(=O)CCC(N)=O [Succindiamide]

SMILES: NC(=O)c1cccnc1 [Nicotinamide]
activity at 2000 µg/mL [1, 2]: 39%

SMILES: CCC(=O)O [Propionic acid]
activity at 2000 µg/mL [1, 9]: 78%

SMILES: N#CCN [Glycine nitrile]
activity at 2000 µg/mL [1, 5]: 58%

activity at 2000 µg/mL [1, 6]: 81%
SMILES: CCCCC(=O)O [Valeric acid]

SMILES: C=C(C)C(N)=O [Methacrylamide]
activity at 2000 µg/mL [1, 4]: 70%

SMILES: O=CO [Formic acid]
activity at 2000 µg/mL [1, 9]: 48%

SMILES: N#CCCCl [β-Chloropropionitrile]
activity at 2000 µg/mL [1, 5]: 63%

SMILES: CCCC(=O)O [Butyric acid]
remaining activity at 100 µg/mL [1, 10]: 87%
remaining activity at 10 µg/mL [1, 13]: 63%
remaining activity at 1000 µg/mL ([1]; stabilizer concentration 1.0 g/l; pH 6.0; extract 0.7×10^3 U/ml; 20° C. for 2 days; read-out: % Residual Activity): 92%
remaining activity at 5000 µg/mL [1, 14]: 90%
remaining activity at 20000 µg/mL [1, 12]: 85%
remaining activity at 50000 µg/mL [1, 15]: 67%

activity at 2000 µg/mL [1, 4]: 50%
SMILES: CC(O)C(N)=O (stereo not shown) [Lactamide]

SMILES: C=C(C)C#N [Methacrylonitrile]
activity at 2000 µg/mL [1, 5]: 62%

activity at 2000 µg/mL [1, 4]: 48%
SMILES: NC(=O)CC(N)=O [Malondiamide]

activity at 2000 µg/mL [1, 4]: 47%
SMILES: NC(=O)c1ccccc1 [Benzamide]

activity at 2000 µg/mL [1, 4]: 61%
SMILES: NC(=O)CCO [β-Hydroxypropionamide]

activity at 2000 µg/mL [1, 16]: 54%
SMILES: N#CCC(=O)O [Cyanoacetic acid]

SMILES: N#Cc1ccccc1 [Benzonitrile]
activity at 2000 µg/mL [1, 16]: 44%

SMILES: C=CC#N [Acrylonitrile]
activity at 2000 µg/mL [1, 5]: 56%

SMILES: CC#N [Acetonitrile]
activity at 2000 µg/mL ([1]; 48 h, pH 6.5, read-out: % Residual Activity (Nitrile Added)): 61%

SMILES: CCC(N)=O [Propionamide]
activity at 2000 µg/mL [1, 4]: 83%

activity at 2000 µg/mL [1, 6]: 52%
SMILES: O=C(O)CO [Glycolic acid]

activity at 2000 µg/mL [1, 4]: 75%
SMILES: CCCCCC(N)=O [n-Capronamide]

activity at 2000 µg/mL [1, 6]: 72%
SMILES: O=CC(=O)O [Glyoxylic acid]

SMILES: CCCC(N)=O [n-Butyramide]
activity at 2000 µg/mL [1, 4]: 90%
remaining activity at 20000 µg/mL [1, 10]: 78%
remaining activity at 10 µg/mL [1, 13]: 60%
remaining activity at 100 µg/mL ([1]; stabilizer concentration 0.1 g/l; pH 6.0; […]; 20° C. for 2 days; read-out: % Residual Activity): 85%
remaining activity at 1000 µg/mL [1, 11]: 85%
remaining activity at 5000 µg/mL [1, 14]: 89%
remaining activity at 50000 µg/mL [1, 15]: 63%

SMILES: CCCCCC(=O)O [Caproic acid]
activity at 2000 µg/mL [1, 8]: 78%

SMILES: N#Cc1cccnc1 [Nicotinonitrile]
activity at 2000 µg/mL [1, 5]: 43%

SMILES: O=C(O)CCl [Monochloroacetic acid]
activity at 2000 µg/mL [1, 8]: 39%

SMILES: C=CC(=O)O [Acrylic acid]
activity at 2000 µg/mL [1, 8]: 53%
